{"source": "patent US20230383264A1", "about": "“FULLY FUNCTIONAL CONTRACTILE GASTROINTESTINAL ORGANOID SYSTEM, GENERATED FROM HUMAN-INDUCED PLURIPOTENT STEM CELLS TO DEVELOP A HIGH THROUGHPUT SYSTEM FOR DETECTING EXISTING AND NEWLY-EMERGING PATHOGENS, DRUGS, TOXICITY AND THEREOF” (NeyroblastGX LLC,, priority 2022, published 2023)", "type_in_all_cases": "cell-based, human", "key": {"[1]": {"tested_on": "GIO (gastrointestinal organoids from HiPSCs)", "experiment": "MTT cell viability assay of Fresh-GIO and Cryo-GIO", "details": "LPS 96 h", "procedure": "We determined GIO viability after the freeze-thaw cycle using a colorimetric assay to evaluate cell metabolic activity with an MTT [3-(4,5-dimethylthiazol-2-yl)-2,5-diphenyltetrazolium bromide] assay, following the manufacturer's instructions for the assay (MilliporeSigma). To perform the reported established MTT assay^40, we grew GIO in 24-well plates and then treated them with or without LPS for 96 h to observe viability and stability. We added lmg/mL of MTT reagent to each −well containing GIO, followed by the 2 h incubation at 37° C. Further, GIO was washed with sterile PBS, followed by the addition of dimethyl sulfoxide (DMSO) in each—well and mixed. After the 10 min incubation, DMSO was absorbed the MTT and run for a plate reader (SpectraMax iD3 Plate Reader, Molecular Devices, San Jose, CA) with the optical absorption density (OD) of 570 nm to determine the amount of MTT binding in the viable cell. This method determined our GIO's viability and stability after the freeze-thaw cycle with or without inflectional susceptible LPS treatment. We calculated the amount of MTT in each well using the following formula: […]"}, "[2]": {"tested_on": "microbiota-treated GIO bacterial community", "experiment": "Shotgun metagenomics of fecal microbiota-treated GIO", "details": "LPS-treated GIO vs GIO without LPS, with fecal microbiota", "procedure": "Our UT-GIO and Sus-GIO were treated with fecal microbiota to generate GIO with a complete gut-microbiome system observed in vivo.^38,39 In this context, we first prepared fecal microbiota, purchased from Discovery Life Sciences (DLS). DLS obtains fecal microbiota samples according to their protocol approved by their internal review board (IRB). Then, 100 mg of fecal microbiota was dissolved with sterile PBS and filtered by a 70 μm cell strainer to remove aggregates. Filtered fecal microbiota was further diluted 1:100 using an intestinal expansion medium without penicillin/streptomycin. […] Microbiota-treated GIO with or without LPS and pathogenic/nonpathogenic bacterial culture media sample was analyzed by University of California, San Diego (UCSD) Microbiome Core to obtain metagenomic profiles.\nIn total, pathogenic and non-pathogenic UT (untreated) and Sus (susceptible)-GIO samples were processed for total DNA extraction and metagenomic library preparation and sequencing. […] Sequencing data were processed first by performing adapter trimming and human-read filtering via pairwise alignments using minimap2. All reads were uploaded into qiita, and taxonomy was assigned using the Web of Life toolkit (WoLtka) implementation in Qiime2 via QIITA (read more here: https://github.com/qiyunzhu/woltka). […]"}, "[3]": {"tested_on": "GIO (gastrointestinal organoids from HiPSCs)", "experiment": "10-plex proinflammatory cytokine array of LPS-treated GIO media", "procedure": "10-plex proinflammatory cytokine (ProC) measurement of LPS and pathogen/non-pathogenic bacterial treated GIO media (supernatant) was assayed using the Luminex multiplexing cytokine suspension array technology (Immune Monitoring Core Facility, USC, CA). Measurements of IL-2, IL-6, IL-8, IL-10, IL-13, TNF-α, INF-γ, MIP-1α and MIP-1β in the supernatant were analyzed using a MilliPlex MAP human cytokine/chemokine magnetic bead panel (MilliporeSigma, St. Louis, MO). Plates were read on a Bio-Plex 200 System using Bio-Plex Manager software version 6.0 (BioRad, Hercules, CA). Five (5) parameter logistic regression algorithms were used to determine cytokine concentrations based on provided cytokine standards and averages from triplicate-wells. Each ProC standard was measured using six known concentrations (10.0 ng, 2.0 ng, 0.4 ng, 0.08 ng, 0.016 ng, 0.0032 ng), and most regression values reached >0.99. Limit of detection: The lower limit of quantitation (LLOQ) for each ProCs are IL-13 (0.257 pg/mL), IL-1β (0.485 pg/mL), IL-2 (0.157 pg/mL), IL-8 (0.299 pg/mL), TNF-α (0.382 pg/mL), IL-6 (0.179 pg/mL), INF-γ (0.562 pg/mL), IL-10 (1.510 pg/mL), MIP-1α (0.273 pg/mL), MIP-1β ([…]). We quantified the UT-GIO, LPS-treated Sus-GIO, and Cryo-GIO with or without pathogenic and non-pathogenic bacteria. After analyzing ProC in each treatment, we conducted statistical analyses to determine the significance of the ProC status of pathogenic versus non-pathogenic bacteria in LPS-treated (Sus-GIO) and untreated GIO (UT-GIO) using GraphPad Prism (San Diego, CA). We have performed two-way ANOVA with Tukey's multiple comparisons using GraphPad Prism. *p<0.05, **p<0.01, ***p<0.001, ****p<0.0001 denotes significance."}, "[4]": {"tested_on": "GIO (gastrointestinal organoids from HiPSCs)", "experiment": "Immunocytochemistry of Zo1 (TJP1) and Ki67 in LPS-treated GIO", "text": "Immunocytochemistry (ICC) and flow cytometry is a common cellular protein or antigen-detecting and visualization techniques that can recognize the target of interest or specific marker expression in cells via imaging and a series of flow histograms. The antibody is directly or indirectly linked to a reporter, such as a fluorophore or an enzyme. We performed ICC and flow cytometry as a previously established method developed by the PI.^35, 36 Briefly, for flow cytometry, cells were collected and dissociated with trypsin into a single cell and then blocked with 2% mouse serum and staining with conjugated anti-CDX2 antibody (BD Biosciences) as previously established method^11 and run to NovoCyte Flow Cytometer (Agilent Technologies, Santa Clara, CA). We have verified endodermal marker verification using CDX2 expression using flow cytometry. But for ICC, we have grown GIOs on coverslips coated or directly on the 24-well plates. Then cells were washed with PBS (phosphate-buffered saline) and fixed with 4% paraformaldehyde (PFA, Thermo Scientific). After additional washes in PBS, the cells were permeabilized in 0.1% Triton X-100 (Sigma-Aldrich), followed by blocking with 5% BSA (bovine serum albumin) in PBS containing 10% normal goat serum (NGS, Thermofisher Scientific). Next, the cells were incubated overnight with primary antibodies diluted in a blocking solution at […] with an appropriate dilution indicated by the manufacturer. The next day, the cells were washed three times with washing buffer (1×PBS containing 0.05% Tween 20 and 1% NGS). Then cells were incubated for 2 h at 25° C. with a fluorescent secondary antibody (Life Technologies). […] NGL lab-produced GIO followed a similar developmental pathway in the fetus or fetal mouse^37, including smooth muscle contractile ability determined by smoothA and β-actin,^14 GFAP, and MAP2."}}, "note": "Values joined by “and” are separate entries in the source; they are usually repeats but may differ in a detail not shown here. Identical values can stand only once. “Also recorded” adds a separate entry of the source.", "data": [{"substance": "lipopolysaccharide [LPS]", "values": [{"measurement": "Loss of cell viability (MTT)", "setting": "[1]", "value": "15-20% and ~20%"}, {"measurement": "Change of bacterial community (Bacteroidales bacterium M2)", "setting": "[2]", "value": "causes a bloom of an unknown Bacteroides sp; also recorded: caused a bloom of unknown Bacteroides sp"}, {"measurement": "IL-10, IL-1β and IFNγ secretion", "setting": "[3]; LPS 100 μg/mL, 48 h only", "value": "upregulated only in 48 h time points; also recorded: upregulated when treated with only 100 μg/mL LPS for 48 h"}, {"measurement": "IL-2, IL-6, IL-8, TNF-α, MIP-1α and MIP-1β secretion", "setting": "[3]; LPS 10-100 μg/mL, 24 h and 48 h, dose and time-dependent", "value": "upregulated"}, {"measurement": "IL-13 secretion", "setting": "[3]; any time point or LPS concentration", "value": "unable to detect"}, {"measurement": "Effect on Zo1 immunostaining at earlier time point", "setting": "[4]; 24-48 h", "value": "could not see any effect on Zo1"}, {"measurement": "Ki67 (intestinal crypt cell type) expression", "setting": "[4]; LPS 100 μg/ml, 96 h", "value": "decreased"}, {"measurement": "Effect on TJP1 (Zo1) expression", "setting": "[4]; LPS 50-100 μg/ml, 96 h", "value": "affects GIO TJP1; also recorded: disrupts endothelial tight junction protein"}]}]}
